Data set [1] is described as follows: WST-1 cell proliferation assay, ORL8 cells. It counts as cell-based. As to conditions: human. How it is done: (§1) The WST-1 cell proliferation assay was performed as described previously. Briefly, The cells were plated onto 96-well plates (1×10^3 cells per well) in triplicate and then treated with each reagent at several concentrations for 72 hrs. After treatment, the cells were subjected to the WST-1 cell proliferation assay (Takara Bio, Otsu, Japan) according to the manufacturer’s protocol. This assay is based on the enzymatic cleavage of the tetrazolium salt WST-1 to formazan by cellular mitochondrial dehydrogenases present in viable cells. Therefore, there are […] the value of the WST-1 assay becomes zero. The experiments were performed at least in triplicate. From the assay results, the 50% cytotoxic concentration (CC50) of each reagent was determined.

Data set [2] has as its system HCV-JFH-1 strain (genotype 2a) in Li23-derived D7 cells. The data set can be described thus: JFH-1 reporter assay system, D7 cells. It counts as cell-based, hepatitis C virus. The settings on record: D7 cells inoculated with JR/C5B/BX-2 supernatant, RL assay. The protocol: HCV infection was performed as described previously. RSc and D7 cells were inoculated with supernatant from RSc cells replicating JR/C5B/BX-2 [29].
Figure 2 Characterization of anti-HCV activities of N-89 and N-251. (A) Schematic gene organization of authentic HCV-RNA (HCV-O/RLGE). The positions of four adaptive mutations - Q1112R, P1115L, E1202G, and K1609E - are indicated by a black star. (B) N-89 and N-251 inhibited authentic HCV-RNA replication. The cells harboring HCV-O/RLGE RNA [19] were treated with N-89 (left panel) and N-251 (right panel) for 72 hrs, followed by real-time LightCycler PCR (black circles in the upper panel) and WST-1 assay (open triangles in the upper panel). The relative value (%) calculated at each point, when the level in non-treated cells was assigned as 100%, is presented here. Data are expressed as the means±standard deviation of triplicate assays. Western blot analysis (lower panels) was performed as described in Fig. 1B. […]
(§2) We next examined whether N-89 and N-251 worked in an HCV production system using HCV-JFH-1 strain (genotype 2a). […] To clarify whether anti-HCV activity depends on the difference of genotype or assay model, we evaluated the activities of N-89 and N-251 using RSc-JRN/35B [Ikeda et al., submitted] cells harboring a subgenomic HCV-JFH-1 replicon as an additional assay.

The subject of another data set is HCV-RNA in OR6 cells. The data set can be described thus: Curing of OR6 cells by N-89 treatment (G418 selection, Western blot). As to conditions: 8 µM, 3 weeks, addition at 4-day intervals, absence of G418. The class given is cell-based, hepatitis C virus. The protocol: (§3) To date, IFN-α alone or IFN-γ alone has generally been used to prepare cured cells from the cells harboring HCV-RNA [36]. Since we observed strong anti-HCV activity (>99% suppression) at 8 µM of N-89 in OR6 cells or 1 µM of N-89 in ORL8 cells without a decrease in cell viability (Fig. 1B), we expected that these cells might be cured only by treatment with N-89. Accordingly, OR6 and ORL8 cells were treated with 8 µM and 1 µM of N-89, respectively, in the absence of G418. The treatment was continued for 3 weeks with the addition of N-89 at 4-day intervals.
(§4) Figure 3 OR6 and ORL8 cells were cured by treatment with only N-89. The treated cells were divided into two plates with or without G418, and then cultured for 2 weeks. The left panels show the cells stained with Coomassie brilliant blue. The right panels show the results of Western blot analysis of the treated and non-treated cells for HCV proteins. Western blot analysis was performed as described in Fig. 1B.

The subject of another data set is HCV-RNA in ORL8 cells. The data set can be described thus: Curing of ORL8 cells by N-89 treatment (G418 selection, Western blot). The class given is cell-based, hepatitis C virus. The settings on record: 1 µM, 3 weeks, addition at 4-day intervals, absence of G418. How it is done: as §3, §4
Data set [3] deals with HCV-RNA replication in ORL8 cells. The data set can be described thus: Comparative time course RL assay in ORL8 cells. The class given is cell-based, hepatitis C virus. The protocol:
We next performed a time course assay (2 to 72 hrs after treatment) in the case of ORL8 cells treated with N-89 (0.1 µM or 1 µM) or IFN-α (1 IU/ml; corresponding to approximately EC80). ORL8 cells treated with IFN-α (1 IU/ml) and N-89 (1 µM) had almost the same anti-HCV kinetics over the first […] after treatment (upper panel of Fig. 4); however, within the first 12 hrs after treatment N-89-treated ORL8 cells had more rapid anti-HCV kinetics than did the IFN-α-treated cells (lower panel of Fig. 4).
Figure 4 The anti-HCV action of N-89 was faster than that of IFN-α. The ORL8 cells were treated with N-89 or IFN-α, and then RL assays were performed at 2 to 72 hrs after the treatment. The relative value (%) calculated at each time point, when the luciferase activity of non-treated cells at 24 hrs was assigned as 100%, is shown. Data are expressed as the means±standard deviation of triplicate assays. […] To evaluate this possibility, we examined the effect of VE on N-89 at the EC90 level in the ORL8 assay. […] Similar results were obtained by using N-251 (Fig. 5C and D). […] However, an antimalarial drug, artemisinin, was hardly influenced by co-treatment with VE (Fig. 5E). The value (1.9) of artemisinin was almost the same as that (3.5 or 2.5) of IFN-α or the control, respectively (Fig. 5F).

The test system of a further data set is mice. Also noted: method as in PMID 11428929, PMID 17273878, PMID 12723958. As to conditions: cited from earlier work.
Another data set concerns rats. Also noted: method as in PMID 11428929, PMID 17273878, PMID 12723958. As to conditions: cited from earlier work.
A further data set deals with Plasmodium falciparum. Also noted: method as in PMID 11428929, PMID 17273878, PMID 12723958. As to conditions: cited from earlier work.
For a further data set, the system named is Plasmodium berghei. Details: method as in PMID 11428929, PMID 17273878, PMID 12723958. As to conditions: cited from earlier work.
Data set [4] can be described thus: Viability of RSc-JRN/35B cells (WST-1, trypan blue cell counting). The class given is cell-based, human. As to conditions: human, read-out: viable cells by cell counting after trypan blue dye treatment. How it is done: as §1, §2
The subject of another data set is RSc-JRN/35B cells. The data set is described as above. It counts as cell-based, human. The settings on record: 10 µM. How it is done: as §1, §2
Another data set has as its system malaria parasites. Details: method as in PMID 21501696, PMID 21924377. As to conditions: compared with N-89; cited from earlier work.

The values that follow come from publication PMC3758303 (PLoS ONE, 2013).

The structures appear in SMILES notation. Where only a bound is given, the exact number is not on record here.

Take `C1CCCCCC2(CCCCC1)OOCCCOO2` [N-89, 1,2,6,7-Tetraoxaspiro[7.11]nonadecane]: the CC50 at 72 h in data set [1] stood at 2300 nM. Besides, the “anti-HCV activity for the HCV-JFH-1 strain” value in [2] was “did not show anti-HCV activity”. In addition, the “curing of HCV-RNA-replicating cells” value in the data set with HCV-RNA in OR6 cells and with HCV-RNA in ORL8 cells was “cured” throughout. For the same compound, the “time after treatment at which RL activity was significantly decreased” value amounted to 9 h in [3] (0.1 µM) and 6 h in [3] (1 µM). Also, the 50% lethal dose with mice and with rats was above 2000 mg/kg in each case. Also, the “antimalarial activity in vitro” value with Plasmodium falciparum is “potent antimalarial activity”. For the same compound, in the data set with Plasmodium berghei, the “antimalarial activity in vivo” value was “potent antimalarial activity”.
As for `OCCCCCCC1COOC2(CCCCCCCCCCC2)OOC1` [N-251, 6-(1,2,6,7-tetraoxaspiro[7.11]nonadec-4-yl)hexan-1-ol], the half-maximal cytotoxic concentration (CC50) at 72 h in data set [1] came to 1300 nM. The “anti-HCV activity for the HCV-JFH-1 strain” value in [2] is reported as “did not show anti-HCV activity”. The viability at 10 µM in data set [4] is around 30%. Further, the “relative value of WST-1” value in the data set with RSc-JRN/35B cells was “almost became zero”. The “potency against malaria parasites” value in the data set with malaria parasites is “as potent as N-89”.
